From US20230295201A1 (Gilead Sciences, Inc., priority 2020, published 2023)
Like-named read-outs stand apart in the source and are kept apart here.

What was measured:
Assay type in all cases: cell-based
RSV strain A2 = test: RSV HEp-2 EC50 (infectious cytopathic cell protection assay); details: HEp-2 cells, RSV A2, 4 days, read-out: RSV HEp-2 EC50
Method in brief: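 Percent inhibition of RSV-induced cytopathic effect came from remaining cell viability (CellTiter-Glo luminescence) after 4 days at 37° C. Compounds in 3-fold serial dilutions were exposed to an infectious mix of titered A2 virus and HEp-2 cells at 50,000/ml, with 0% and 100% inhibition control standards.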

RSV A2 = test: RSV NHBE EC50 (RSV A2 antiviral assay in normal human bronchial epithelial cells); details: NHBE cells, RSV A2, 4 days, read-out: RSV NHBE EC50
HRV16 = HRV16 HELA EC50 (cytopathic effect in H1-HeLa cells)
Method in brief: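 Read-out is luminescent cell viability (CellTiter-Glo) after 96 h of infection at 33 °C, scaled between uninfected and infected-untreated wells. Before infection with titrated virus, compounds went onto H1-HeLa cells as triplicate 3-fold dilution series.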

DENV2 replicon = test: DENV-2 Huh-7 Rep EC50 (replicon luminescence); details: Huh-7 replicon cells, 48 hours, read-out: DENV-2 Huh-7 Rep EC50
Method in brief: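 EC50 derived from luminescence dose-response, normalised to DMSO-only 0% inhibition wells, after 1.5 h with EnduRen substrate. Compounds were first exposed for 48 h at 37° C to DENV2 replicon Huh-7 cells (5,000/well).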

[1] = system: Dengue serotype 2 New Guinea C (NGC) strain; test: DENV-2 Huh-7 EC50 (qPCR in Huh7 cells)
Method: Huh7 (Human hepatocarcinoma 7) cells were maintained in 10% FCS-containing DMEM complete media. On the day of the assay, cells were trypsinized (0.1% Trypsin-EDTA), washed and infected for 2 hours in serum-free DMEM with Dengue serotype 2 New Guinea C (NGC) strain at MOI=0.1 with gentle agitation at 37° C. After 2 hours, cells were washed with serum-free media and suspended in 10% FCS-containing DMEM (Gibco, supplemented with sodium pyruvate, NEAA, Penicillin-Streptomycin). 10^5 cells were plated in triplicate in 96-well plates with compounds dispensed at graded doses (Hewlett-Packard D300 Digital Dispenser). All wells were normalized to 0.25% DMSO. At 48 hours, cells were washed with 1×PBS and all supernatants removed. Total RNA was extracted using RNEasy 96 plates (Qiagen) and used to generate first-strand cDNA using XLT cDNA 5×Supermix (QuantaBio). cDNA was used as a template in a Taqman qPCR duplex reaction specific to DENV2 viral and GAPDH gene expression. EC50 values were determined using Prism Graphpad software, with normalization to a positive control and no compound negative control wells.

HCV replicon 1B = test: HCV Rep 1B EC50 (replicon luciferase)
Method: (§1) Compounds were serially diluted in ten steps of 1:3 dilutions in 384-well plates. All serial dilutions were performed in four replicates per compound within the same 384-well plate. […] To each well of a black polystyrene 384-well plate (Greiner Bio-one, Monroe, NC), 90 μL of cell culture medium (without Geneticin) containing 2000 suspended HCV replicon cells was added with a Biotek μFlow workstation. For compound transfer into cell culture plates, 0.4 μL of compound solution from the compound serial dilution plate was transferred to the cell culture plate on a Biomek FX workstation. The DMSO concentration in the final assay wells was 0.44%. The plates were incubated for 3 days at 37° C. with 5% CO2 and 85% humidity. The HCV replicon assay was a multiplex assay, able to assess both cytotoxicity and antireplicon activity from the same well. The CC50 assay was performed first. The media in the 384-well cell culture plate was aspirated, and the wells were washed four times with 100 μL of PBS each, using a Biotek ELX405 plate washer. A volume of 50 μL of a solution containing 400 nM calcein AM (Anaspec, Fremont, CA) in 1×PBS was added to each well of the plate with a Biotek μFlow workstation. The plate was incubated for 30 min at room temperature before the fluorescence signal (excitation 490 nm, emission 520 nm) was measured with a Perkin-Elmer Envision plate reader. The EC50 assay was performed in the same wells as the CC50 assay. The calcein-PBS solution in the 384-well cell culture plate was aspirated with a Biotek ELX405 plate washer. A volume of 20 μL of Dual-Glo luciferase buffer (Promega, Madison, WI) was added to each well of the plate with a Biotek μFlow Workstation. The plate was incubated for 10 min at room temperature. A volume of 20 μL of a solution containing a 1:100 mixture of Dual-Glo Stop & Glo substrate (Promega, Madison, WI) and Dual-Glo Stop & Glo buffer (Promega, Madison, WI) was added to each well of the plate with a Biotek μFlow Workstation. The plate was then incubated at room temperature for 10 min before the luminescence signal was measured with a Perkin-Elmer Envision Plate Reader.

HCV replicon 2A = test: HCV Rep 2A EC50 (replicon luciferase)
Method: as §1

[2] = human respiratory syncytial virus, HEp-2, 96 h
[3] = human respiratory syncytial virus, NHBE, 96 h
[4] = 96 h, H1-HeLa cells, 33° C., read-out: HRV16 HELA EC50
[5] = Dengue virus, DENV2, Huh-7, 48 h
[6] = H1-HeLa cells, 96 h, 33° C.; read-out: HRV16 HELA EC50
[7] = replicon cells, 3 days, read-out: HCV Rep 1B EC50
[8] = replicon cells, 3 days, read-out: HCV Rep 2A EC50

SMILES | EC50 (RSV strain A2) [nM] | EC50 (RSV A2) [nM] | EC50 (HRV16; [6]) [nM] | EC50 (DENV2 replicon) [nM] | EC50 ([1]; 48 hours) [nM] | also measured
CC(C)(C)C(=O)OCCNP(=O)(OC[C@@]1(C#N)O[C@@H](c2ccc3c(N)ncnn23)[C@H](O)[C@@H]1O)Oc1ccccc1 (mixture of isomers) [Example 11, 2-(((((2R,3S,4R,5S)-5-(4-aminopyrrolo[2,1-f][1,2,4]triazin-7-yl)-2-cyano-3,4-dihydroxytetrahydrofuran-2-yl)methoxy)(phenoxy)phosphoryl)amino)ethyl pivalate] |  |  |  |  |  | EC50 (RSV strain A2; [2]): 269 nM; EC50 (RSV A2; [3]): 54 nM; EC50 (HRV16; [4]): 1200 nM; EC50 (DENV2 replicon; [5]): > 50000 nM; EC50 [1, 5]: 3500 nM
C[C@H](NP(=O)(OC[C@@]1(C#N)O[C@@H](c2ccc3c(N)ncnn23)[C@H](O)[C@@H]1O)Oc1ccccc1)C(=O)OCC1CC1 (single isomer, unassigned) [Example 9] | 1010 | 97 | 324 | > 50000 | 1460 | 
C[C@H](NP(=O)(OC[C@@]1(C#N)O[C@@H](c2ccc3c(N)ncnn23)[C@H](O)[C@@H]1O)Oc1ccccc1)C(=O)OCC1CC1 (single isomer, unassigned) [Example 10] | 191 | 421 | 583 | 17900 | 2790 | 
CC(NP(=O)(OCC1(C#N)OC(c2ccc3c(N)ncnn23)C(O)C1O)Oc1ccccc1)C(=O)OCC1CCC(C(F)(F)F)CC1 (single isomer, unassigned) [Example 27] | 1300 | 18 | 3160 | 82200 | 5680 | 
CC(NP(=O)(OCC1(C#N)OC(c2ccc3c(N)ncnn23)C(O)C1O)Oc1ccccc1)C(=O)OCC1CCC(C(F)(F)F)CC1 (single isomer, unassigned) [Example 28] | 238 | 53 | 590 | 29600 | 2160 | 
COCCCOC(=O)[C@H](C)NP(=O)(OC[C@@]1(C#N)O[C@@H](c2ccc3c(N)ncnn23)[C@H](O)[C@@H]1O)Oc1ccccc1 (single isomer, unassigned) [Example 60] | 583 | 361 |  | 41300 | 6820 | EC50 (HCV replicon 1B; [7]): 6080 nM; EC50 (HCV replicon 2A; [8]): 10800 nM
C[C@H](NP(=O)(OC[C@@]1(C#N)O[C@@H](c2ccc3c(N)ncnn23)[C@H](O)[C@@H]1O)Oc1ccccc1)C(=O)O[C@H]1CCOC1 (single isomer, unassigned) [Example 66] |  |  |  |  |  | EC50 (DENV2 replicon; [5]): > 100000 nM; EC50 (HCV replicon 1B; Hepatitis C virus, 72 h, read-out: HCV Rep 1B EC50, replicon cells, 3 days): 14900 nM; EC50 (HCV replicon 2A; Hepatitis C virus, 72 h, read-out: HCV Rep 2A EC50, replicon cells, 3 days): 21800 nM
CC(NP(=O)(OCC1(C#N)OC(c2ccc3c(N)ncnn23)C(O)C1O)Oc1ccccc1)C(=O)OC1CCOC1 (single isomer, unassigned) [Example 69] |  |  | 7320 | > 100000 |  | EC50 (HCV replicon 1B; [7]): 25300 nM; EC50 (HCV replicon 2A; [8]): 50300 nM
CC(NP(=O)(OCC1(C#N)OC(c2ccc3c(N)ncnn23)C(O)C1O)Oc1ccccc1)C(=O)OC1CCOC1 (single isomer, unassigned) [Example 70] |  |  | 5230 | > 100000 |  | EC50 (HCV replicon 1B; [7]): 9430 nM; EC50 (HCV replicon 2A; [8]): 32700 nM
CCC(CC)COC(=O)[C@H](C)NP(=O)(N[C@@H](C)C(=O)OC1CCCCC1)OC[C@@]1(C#N)O[C@@H](c2ccc3c(N)ncnn23)[C@H](O)[C@@H]1O (single isomer, unassigned) [Example 227] | 614 | 126 | 4940 | 39400 |  | EC50 (HCV replicon 1B; [7]): 10200 nM; EC50 (HCV replicon 2A; [8]): 4760 nM
C[C@H](NP(=O)(OC[C@@]1(C#N)O[C@@H](c2ccc3c(N)ncnn23)[C@H](O)[C@@H]1O)Oc1ccccc1)C(=O)OCc1ccccc1 (stereo partly drawn) [Example 37, benzyl ((((2R,3S,4R,5S)-5-(4-aminopyrrolo[2,1-f][1,2,4]triazin-7-yl)-2-cyano-3,4-dihydroxytetrahydrofuran-2-yl)methoxy) (phenoxy)phosphoryl)-L-alaninate] |  |  |  |  |  | EC50 (RSV strain A2; [2]): 136 nM; EC50 (RSV A2; [3]): 129 nM; EC50 (HRV16; [4]): 329 nM; EC50 (DENV2 replicon; [5]): 6700 nM; EC50 [1, 5]: 1510 nM
C[C@H](N[P@@](=O)(OC[C@@]1(C#N)O[C@@H](c2ccc3c(N)ncnn23)[C@H](O)[C@@H]1O)Oc1ccccc1)C(=O)OCC1CCC1 [Example 119] | 539 | 120 | 247 | 31100 | 4280 | 
C[C@H](N[P@](=O)(OC[C@@]1(C#N)O[C@@H](c2ccc3c(N)ncnn23)[C@H](O)[C@@H]1O)Oc1ccccc1)C(=O)OCC1CCC1 [Example 120] | 101 | 104 | 295 | 7460 | 798 | 
CCCCCCCCOC(=O)[C@H](C)NP(=O)(OC[C@@]1(C#N)O[C@@H](c2ccc3c(N)ncnn23)[C@H](O)[C@@H]1O)Oc1ccccc1 (stereo partly drawn) [Example 188, octyl ((((2R,3S,4R,5S)-5-(4-aminopyrrolo[2,1-f][1,2,4]triazin-7-yl)-2-cyano-3,4-dihydroxytetrahydrofuran-2-yl)methoxy)(phenoxy)phosphoryl)-L-alaninate] |  |  |  |  |  | EC50 (RSV strain A2; [2]): 186 nM; EC50 (RSV A2; [3]): 38 nM; EC50 (HRV16; [4]): 429 nM; EC50 (DENV2 replicon; [5]): 21400 nM; EC50 [1, 5]: 3020 nM
